From PubChem BioAssay (NCI) come the findings set out here.

Values joined by “and” are separate entries in the source; they are usually repeats but may differ in a detail not shown here. Equal values may be shown once.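 The compound was tested at five concentrations on cells cultured in 96-well plates, with a 48-hour exposure period. At the GI50, growth is halved. TGI: total growth inhibition.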

Common to all, as to assay: NCI-60 cell line screen, 48 h
Assay [1] deals with CCRF-CEM leukemia.
Assay [2] concerns HS 578T breast.
Assay [3] relates to K-562 leukemia.
For assay [4], the system named is KM12 colon.
Assay [5] deals with MDA-N.
For assay [6], the system named is RPMI-8226 leukemia.
The subject of assay [7] is SF-268 CNS.
In assay [8] the test system is SW-620 colon.
The test system of assay [9] is TK-10 renal.
The subject of assay [10] is UO-31 renal.

For the compound `CCOP(=O)(OCC)C(F)(F)CC1CCCCC1`, the TGI in assay [1], in [2], in assay [3], in assay [4], in assay [5] and in [6] was greater than 10 µM throughout. Also, the TGI in assay [7], in [8], in assay [9] and in [10] was greater than 10 µM in each case.
With `COc1ccc(-c2c(C(C)=O)c(C)n(C3OC(CO)C(O)C(O)C3O)c(=S)c2C#N)cc1` (stereo not given), the TGI in [1], in assay [2], in [3], in assay [4], in assay [5] and in assay [6] was greater than 100 µM each time. The TGI in assay [7], in [8], in assay [9] and in [10] was greater than 100 µM each time.
For the compound `N#Cc1nnc2c3c(-c4ccc(Cl)cc4)c(C#N)c(=O)[nH]c3nn2c1N`, the TGI is greater than 100 µM in assay [1]; 10.8 µM in [2]; greater than 41.6 µM in [3]; 28.5 µM in assay [4]; 13.4 µM in assay [5]; 51.1 µM in assay [6]. The TGI was 12.6 µM in [7], 32 µM in assay [8], greater than 100 µM in assay [9] and 20.7 µM in [10].
With `CC(=O)c1nccc2c1c(C)nc1ccccc12`, the TGI is 68.6 µM in [1]; 96.3 µM in assay [2]; greater than 100 µM in assay [3]; greater than 100 µM in assay [4]; greater than 100 µM in [5]; 61 µM in assay [6]. The TGI in [7], in [8], in [9] and in assay [10] was greater than 100 µM each time.
With `CCOC(=O)Cc1nc2c(=O)[nH]cnc2n1C1OC(COC(C)=O)C(OC(C)=O)C1OC(C)=O` (stereo not given), the TGI in assay [1], in assay [2], in [3], in assay [4], in assay [5] and in [6] was greater than 100 µM each time. The TGI in assay [7], in [8], in [9] and in [10] was greater than 100 µM each time.
In the case of `COc1ccc(C[C@H]2COC(=O)[C@@H]2Cc2cc(OC)c(OC)c(OC)c2)cc1OC`, the TGI in assay [1], in assay [2], in assay [3], in [4], in assay [5] and in [6] was greater than 100 µM each time. Also, the TGI in assay [7], in assay [8], in [9] and in [10] was greater than 100 µM in each case.
Consider `CN1C/C(=C\c2ccccc2[N+](=O)[O-])C(=O)/C(=C/c2ccccc2[N+](=O)[O-])C1`, for which the GI50 in [1] was 0.226 µM and 0.0611 µM; in [2], 1.97 µM and 0.759 µM; in assay [3], 0.25 µM and 0.089 µM; in [5], 0.783 µM and 0.298 µM; in assay [6] it was 0.592 µM and 0.116 µM; in assay [7] it was 1.78 µM and 0.737 µM. Besides, the GI50 in assay [8] was 0.292 µM. In addition, the TGI is 0.542 µM and 0.568 µM in [1]; 24 µM and 3.42 µM in assay [2]; 4.65 µM and 2.63 µM in assay [4]; 2.91 µM and 1.16 µM in [5]; 7.23 µM and 2.86 µM in assay [7]; 0.886 µM and 0.603 µM in [8]. Also, the TGI in assay [9] is 2.42 µM and 2.17 µM; in assay [10], 1.28 µM and 1.12 µM.
As for `CNC(=O)OCC1=C(COC(=O)NC)CN(c2ccccc2)C1`, the TGI in assay [1], in assay [2], in assay [3], in [4], in [5] and in assay [6] was greater than 100 µM each time. Besides, the TGI in assay [7], in assay [8], in assay [9] and in assay [10] was greater than 100 µM in each case.
Take `COC(=O)c1cc2c3c(c(C(C)=O)c(OC)c2[nH]1)NCC3`: the TGI in assay [1], in assay [2], in assay [3], in assay [4], in [5] and in assay [6] was greater than 50 µM in each case. Besides, the TGI in [7], in [8], in assay [9] and in assay [10] was greater than 50 µM in each case.
Consider `CC(C)[Si]1(C(C)C)OCC2OC(n3cnc4c(N)ncnc43)C(N)C2O[Si](C(C)C)(C(C)C)O1` (stereo not given), for which the TGI is greater than 71.6 µM in [1]; 44.5 µM in [2]; 36.9 µM in [3]; 16.6 µM in assay [4]; 24.3 µM in [5]; 7.72 µM in [6]. Besides, the TGI was 41.4 µM in assay [7], greater than 45.4 µM in assay [8], 28.9 µM in assay [9] and 27.6 µM in assay [10].
With `COc1ccc([C@@]23CCC(=O)C[C@@H]2N(C)CC3)cc1OC`, the TGI in assay [1], in assay [2], in assay [3], in assay [4], in [5] and in assay [6] was greater than 100 µM in each case. In addition, the TGI in assay [7], in assay [8], in assay [9] and in assay [10] was greater than 100 µM throughout.
Regarding `COc1ccc(C=O)cc1Oc1ccc(C[C@H]2c3c(cc(OC)c4c3Oc3cc5c(cc3O4)CCN(C)C5=O)CCN2C)cc1`, the TGI in [1] amounted to 22.1 µM; in assay [2], 21.7 µM; in [3], 12.3 µM; in [4], 17.1 µM; in [5], 18.2 µM; in assay [6], 14.3 µM. The TGI in assay [7] turned out to be 22.4 µM; in assay [8] it was 30.9 µM; in assay [9], 18.4 µM; in assay [10], 14.6 µM.
With `O=C(O)CCCc1nc2c(n1-c1ccccc1)C(=O)c1ccccc1C2=O`, the TGI in [1], in assay [2], in [3], in assay [4], in assay [5] and in [6] was greater than 100 µM throughout. In addition, the TGI in assay [7], in [8], in assay [9] and in [10] was greater than 100 µM each time.
On to `CC1=CC(c2ccccc2)n2c(nc3cc4ccccc4cc32)N1` (stereo not given), for which the TGI in assay [1], in [2], in assay [3], in assay [4], in assay [5] and in assay [6] was greater than 100 µM throughout. Further, the TGI in [7], in [8], in assay [9] and in [10] was greater than 100 µM in each case.
`CCCCC(=C=C1CCCCC1O)C1CCCN1C(=O)OC(C)(C)C` (stereo not given): the TGI was determined as 35 µM in assay [1]; 41 µM in [2]; 34.1 µM in assay [3]; 31.5 µM in [4]; 30 µM in assay [5]; 32.6 µM in assay [6]. Moreover, the TGI is 32.7 µM in assay [7], 35.4 µM in [8], 29.8 µM in [9] and 35.8 µM in assay [10].
Regarding `COC(=O)C(Cc1ccccc1)NC(=O)CCCNC(=O)OCc1ccccc1` (stereo not given), the TGI in [1], in [2], in [3], in assay [4], in [5] and in [6] was greater than 100 µM in each case. Also, the TGI in [7], in [8], in [9] and in assay [10] was greater than 100 µM each time.
Consider `C[C@@H](C[C@@H](O)[C@H](O)C(C)(C)O)[C@H]1CC=C2[C@]3(C)[C@H](O)C[C@H]4C(C)(C)[C@H](O)CC[C@]4(C)[C@H]3CC[C@@]21C`, for which the TGI in assay [1] came to 40.8 µM; in assay [2], 50.4 µM; in [3], 41.7 µM; in assay [4], 32.8 µM; in assay [5], 29.5 µM; in assay [6], 48.2 µM. Further, the TGI was 32.2 µM in assay [7], 32.3 µM in assay [8], 32.4 µM in assay [9] and 28.7 µM in assay [10].
Take `O=C(O)c1ccccc1-c1ccccc1C(=O)c1ccccc1`: the TGI in assay [1], in assay [2], in assay [3], in assay [4], in [5] and in [6] was greater than 100 µM in each case. In addition, the TGI in [7], in assay [8], in assay [9] and in assay [10] was greater than 100 µM each time.
`BrCC[P+](c1ccccc1)(c1ccccc1)c1ccccc1`: the TGI in assay [1] came to 12.2 µM; in assay [2], 50.5 µM; in assay [3] it was 30.9 µM; in assay [4] it was 17.1 µM; in [5], 7.59 µM; in assay [6], 8.08 µM. The TGI in assay [7] was 8.25 µM; in assay [8] it was 34.4 µM; in assay [9], 34.5 µM; in assay [10], 22.8 µM.
For `c1ccc(COc2ncccc2C2SCCCS2)cc1`, the TGI in assay [1], in assay [2], in assay [3], in [4], in assay [5] and in [6] was greater than 100 µM throughout. Further, the TGI in [7], in assay [8], in assay [9] and in [10] was greater than 100 µM throughout.
`CN(Cc1nc2c(N)nc(N)nc2nc1N)c1ccc(C(=O)NC(CCC(=O)O)C(=O)O)cc1` (stereo not given): the TGI in assay [1], in assay [2], in assay [3], in assay [4], in [5] and in [6] was greater than 100 µM each time. Further, the TGI in assay [7], in assay [8], in assay [9] and in assay [10] was greater than 100 µM each time.
In the case of `COc1cc(O)c2c(c1)C(O)C(O)CC1OC1C(=O)/C=C/CC(C)OC2=O` (stereo not given), the TGI amounted to 8.8 µM in [1]; 59.5 µM in assay [2]; 13.6 µM in assay [3]; 27.1 µM in assay [4]; 21.6 µM in assay [5]; 34.5 µM in [6]. Also, the TGI is 46.3 µM in assay [7], 6.84 µM in assay [8], 17.5 µM in assay [9] and 17.1 µM in [10].
